{
  "source": "BindingDB's records for doi:10.1021/jm8003625",
  "about": "(Abbott Laboratories, 2008)",
  "key": {"Histamine H3 receptor [1]": {"target": "Histamine H3 receptor (Homo sapiens, UniProt Q9Y5N1)", "sequence (Q9Y5N1 whole entry)": "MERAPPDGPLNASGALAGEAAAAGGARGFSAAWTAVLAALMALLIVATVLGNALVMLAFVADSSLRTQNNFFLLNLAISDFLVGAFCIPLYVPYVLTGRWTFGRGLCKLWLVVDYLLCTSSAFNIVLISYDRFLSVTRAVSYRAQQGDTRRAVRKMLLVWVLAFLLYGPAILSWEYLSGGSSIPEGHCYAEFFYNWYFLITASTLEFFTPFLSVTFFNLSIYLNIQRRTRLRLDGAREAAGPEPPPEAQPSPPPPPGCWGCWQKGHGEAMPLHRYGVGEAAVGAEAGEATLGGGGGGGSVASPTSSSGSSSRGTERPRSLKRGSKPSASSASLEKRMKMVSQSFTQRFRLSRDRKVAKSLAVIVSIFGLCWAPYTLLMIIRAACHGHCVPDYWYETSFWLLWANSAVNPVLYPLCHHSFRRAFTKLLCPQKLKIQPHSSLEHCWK", "experiment": "Radioligand Binding Assay", "conditions": "pH 7.4; 25 °C", "method": "(§1) Competition radioligand binding assays were performed with increasing concentrations of test compound in the presence of [3H]ligand. All binding reactions were terminated by filtration. Bound radiolabel was determined by liquid scintillation counting. For all of the radioligand competition binding assays, IC50 values and Hill slopes were determined by Hill transformation of the data and Ki values were determined by the Cheng-Prusoff equation."}, "Histamine H3 receptor [2]": {"target": "Histamine H3 receptor (Rattus norvegicus, UniProt Q9QYN8)", "sequence (Q9QYN8 whole entry)": "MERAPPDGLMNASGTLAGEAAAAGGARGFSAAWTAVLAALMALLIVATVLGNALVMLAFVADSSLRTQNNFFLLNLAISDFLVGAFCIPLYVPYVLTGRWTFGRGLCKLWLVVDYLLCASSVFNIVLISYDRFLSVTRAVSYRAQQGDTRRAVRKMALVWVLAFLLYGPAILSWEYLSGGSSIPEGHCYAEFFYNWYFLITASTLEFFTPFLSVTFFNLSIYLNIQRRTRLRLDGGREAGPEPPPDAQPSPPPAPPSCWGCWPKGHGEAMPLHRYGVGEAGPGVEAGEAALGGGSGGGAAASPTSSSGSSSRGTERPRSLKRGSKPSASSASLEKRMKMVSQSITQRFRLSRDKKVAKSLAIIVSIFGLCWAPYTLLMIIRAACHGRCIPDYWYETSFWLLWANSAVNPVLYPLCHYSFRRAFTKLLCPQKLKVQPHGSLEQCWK", "experiment": "Radioligand Binding Assay", "method": "as §1"}},
  "data": [
    {"smiles": "CN[C@H]1CC[C@@]2(C)C(=CC[C@H]3[C@@H]4CC[C@@H]5[C@H](C)N(C)C[C@@]54CC[C@@H]32)C1", "note": "[(1R,2S,5S,6S,9R,12S,13R,16S)-N,6,7,13-tetramethyl-7-azapentacyclo[10.8.0.0^{2,9}.0^{5,9}.0^{13,18}]icos-18-en-16-amine]", "values": [
      {"measurement": "Ki", "setting": "Histamine H3 receptor [1]", "result": 0.038, "unit": "µM"},
      {"measurement": "Ki", "setting": "Histamine H3 receptor [2]", "result": 0.302, "unit": "µM"}
    ]}
  ]
}
